pIC50: −log10 of the molar value.
species: Homo sapiens; assay: The compound was tested for inhibition of blood platelet aggregation induced by ADP; 100-250*10e-9; format: functional, organism-based

| pIC50 | SMILES |
| --- | --- |
| 7.00 | CC#CCC(C)[C@H](O)/C=C/[C@H]1[C@H](O)C[C@]2(C#CCCCBr)C/C(=C/CCCC(=O)O)C[C@H]12 (some centres undefined) |

test system: not listed separately; assay: Evaluated for the relative potency to that of Iloprost.; format: functional

| SMILES | Relative potency |
| --- | --- |
| CC#CCC(C)[C@H](O)/C=C/[C@H]1[C@H](O)C[C@]2(C#CCCCN=[N+]=[N-])C/C(=C/CCCC(=O)O)C[C@H]12 (some centres undefined) | 0.003 |
| CC#CCC(C)[C@H](O)/C=C/[C@@H]1[C@H]2C/C(=C/CCCC(=O)O)C[C@H]2C[C@H]1O (stereo in doubt; 1) [ILOPROST] | 1 |
| CC#CCC(C)[C@H](O)/C=C/[C@H]1[C@H](O)C[C@]2(C#CCCCO)C/C(=C/CCCC(=O)O)C[C@H]12 (some centres undefined) | 0.004 |
| CC#CCC(C)[C@H](O)/C=C/[C@H]1[C@H](O)C[C@]2(C#CCCCBr)C/C(=C/CCCC(=O)O)C[C@H]12 (some centres undefined) | 0.001 |
| CC#CCC(C)[C@H](O)/C=C/[C@H]1[C@H](O)C[C@]2(C#CCCCO)C/C(=C\CCCC(=O)O)C[C@H]12 (some centres undefined) | 0.2 |
| CC#CCC(C)[C@H](O)/C=C/[C@H]1[C@H](O)C[C@]2(C#CCCCI)C/C(=C/CCCC(=O)O)C[C@H]12 (some centres undefined) | 0.001 |
| CC#CCC(C)[C@H](O)/C=C/[C@H]1[C@H](O)C[C@]2(CCCCCO)C/C(=C\CCCC(=O)O)C[C@H]12 (some centres undefined) | 0.0006 |
| CC#CCC(C)[C@H](O)/C=C/[C@H]1[C@H](O)C[C@]2(C#CCCC(=O)O)C/C(=C\CCCC(=O)O)C[C@H]12 (some centres undefined) | 0.0002 |
| CC#CCC(C)[C@H](O)/C=C/[C@H]1[C@H](O)C[C@]2(C#CCCCI)C/C(=C\CCCC(=O)O)C[C@H]12 (some centres undefined) | 1 |
| CC#CCC(C)[C@H](O)/C=C/[C@H]1[C@H](O)C[C@]2(C#CCCCN=[N+]=[N-])C/C(=C\CCCC(=O)O)C[C@H]12 (some centres undefined) | 0.1 |
| CC#CCC(C)[C@H](O)/C=C/[C@H]1[C@H](O)C[C@]2(CCCCCO)C/C(=C/CCCC(=O)O)C[C@H]12 (some centres undefined) | 4e-05 |
| CC#CCC(C)[C@H](O)/C=C/[C@H]1[C@H](O)C[C@]2(CCC#CCCCO)C/C(=C\CCCC(=O)O)C[C@H]12 (some centres undefined) | 0.002 |
| CC#CCC(C)[C@H](O)/C=C/[C@H]1[C@H](O)C[C@]2(CCCCCN=[N+]=[N-])C/C(=C\CCCC(=O)O)C[C@H]12 (some centres undefined) | 0.0005 |
| CC#CCC(C)[C@H](O)/C=C/[C@H]1[C@H](O)C[C@]2(C#CCCCBr)C/C(=C\CCCC(=O)O)C[C@H]12 (some centres undefined) | 1 |
| CC#CCC(C)[C@H](O)/C=C/[C@@H]1[C@H]2CC(=CCCCC(=O)O)C[C@H]2C[C@H]1O (some centres undefined) [ILOPROST] | 0.0001 |

species: Homo sapiens; assay: The compound was tested for inhibition of blood platelet aggregation induced by ADP; format: functional, organism-based

| pIC50 | SMILES |
| --- | --- |
| 6.07 | CC#CCC(C)[C@H](O)/C=C/[C@H]1[C@H](O)C[C@]2(C#CCCCN=[N+]=[N-])C/C(=C/CCCC(=O)O)C[C@H]12 (some centres undefined) |
| 6.70 | CC#CCC(C)[C@H](O)/C=C/[C@H]1[C@H](O)C[C@]2(C#CCCCO)C/C(=C/CCCC(=O)O)C[C@H]12 (some centres undefined) |
| 8.00 | CC#CCC(C)[C@H](O)/C=C/[C@H]1[C@H](O)C[C@]2(C#CCCCO)C/C(=C\CCCC(=O)O)C[C@H]12 (some centres undefined) |
| 6.70 | CC#CCC(C)[C@H](O)/C=C/[C@H]1[C@H](O)C[C@]2(C#CCCCI)C/C(=C/CCCC(=O)O)C[C@H]12 (some centres undefined) |
| 5.15 | CC#CCC(C)[C@H](O)/C=C/[C@H]1[C@H](O)C[C@]2(CCCCCO)C/C(=C\CCCC(=O)O)C[C@H]12 (some centres undefined) |
| 5.70 | CC#CCC(C)[C@H](O)/C=C/[C@H]1[C@H](O)C[C@]2(C#CCCC(=O)O)C/C(=C\CCCC(=O)O)C[C@H]12 (some centres undefined) |
| 8.30 | CC#CCC(C)[C@H](O)/C=C/[C@H]1[C@H](O)C[C@]2(C#CCCCI)C/C(=C\CCCC(=O)O)C[C@H]12 (some centres undefined) |
| 7.70 | CC#CCC(C)[C@H](O)/C=C/[C@H]1[C@H](O)C[C@]2(C#CCCCN=[N+]=[N-])C/C(=C\CCCC(=O)O)C[C@H]12 (some centres undefined) |
| 4.96 | CC#CCC(C)[C@H](O)/C=C/[C@H]1[C@H](O)C[C@]2(CCCCCO)C/C(=C/CCCC(=O)O)C[C@H]12 (some centres undefined) |
| 6.40 | CC#CCC(C)[C@H](O)/C=C/[C@H]1[C@H](O)C[C@]2(CCC#CCCCO)C/C(=C\CCCC(=O)O)C[C@H]12 (some centres undefined) |
| 6.30 | CC#CCC(C)[C@H](O)/C=C/[C@H]1[C@H](O)C[C@]2(CCCCCN=[N+]=[N-])C/C(=C\CCCC(=O)O)C[C@H]12 (some centres undefined) |
| 5.36 | CC#CCC(C)[C@H](O)/C=C/[C@@H]1[C@H]2CC(=CCCCC(=O)O)C[C@H]2C[C@H]1O (some centres undefined) [ILOPROST] |

species: Homo sapiens; assay: The compound was tested for inhibition of blood platelet aggregation induced by ADP; 0.5-2.5*10e-9; format: functional, organism-based

| pIC50 | SMILES |
| --- | --- |
| 9.30 | CC#CCC(C)[C@H](O)/C=C/[C@H]1[C@H](O)C[C@]2(C#CCCCBr)C/C(=C\CCCC(=O)O)C[C@H]12 (some centres undefined) |

biological target: Prostacyclin receptor (Homo sapiens) (UniProt P43119); assay: Affinity for Prostaglandin I2 receptor; parameters: unit not given here
Sequence (P43119 whole entry): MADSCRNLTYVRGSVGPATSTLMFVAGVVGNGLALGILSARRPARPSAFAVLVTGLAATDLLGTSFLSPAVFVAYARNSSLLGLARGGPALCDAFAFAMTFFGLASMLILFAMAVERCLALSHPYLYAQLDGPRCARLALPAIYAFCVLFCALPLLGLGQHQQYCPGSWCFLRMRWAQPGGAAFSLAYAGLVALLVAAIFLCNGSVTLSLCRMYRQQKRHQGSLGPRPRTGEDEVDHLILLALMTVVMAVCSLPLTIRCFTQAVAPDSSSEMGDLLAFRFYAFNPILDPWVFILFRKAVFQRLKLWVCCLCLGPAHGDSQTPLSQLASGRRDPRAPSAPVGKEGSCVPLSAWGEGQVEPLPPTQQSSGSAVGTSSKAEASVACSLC

| KF | SMILES |
| --- | --- |
| 80 | CC#CCC(C)[C@H](O)/C=C/[C@H]1[C@H](O)C[C@]2(C#CCCCN=[N+]=[N-])C/C(=C/CCCC(=O)O)C[C@H]12 (some centres undefined) |
| 1 | CC#CCC(C)[C@H](O)/C=C/[C@@H]1[C@H]2C/C(=C/CCCC(=O)O)C[C@H]2C[C@H]1O (stereo in doubt; 1) [ILOPROST] |
| 300 | CC#CCC(C)[C@H](O)/C=C/[C@H]1[C@H](O)C[C@]2(C#CCCCO)C/C(=C/CCCC(=O)O)C[C@H]12 (some centres undefined) |
| 25 | CC#CCC(C)[C@H](O)/C=C/[C@H]1[C@H](O)C[C@]2(C#CCCCO)C/C(=C\CCCC(=O)O)C[C@H]12 (some centres undefined) |
| > 100 | CC#CCC(C)[C@H](O)/C=C/[C@H]1[C@H](O)C[C@]2(C#CCCCI)C/C(=C/CCCC(=O)O)C[C@H]12 (some centres undefined) |
| 130 | CC#CCC(C)[C@H](O)/C=C/[C@H]1[C@H](O)C[C@]2(CCCCCO)C/C(=C\CCCC(=O)O)C[C@H]12 (some centres undefined) |
| 200 | CC#CCC(C)[C@H](O)/C=C/[C@H]1[C@H](O)C[C@]2(C#CCCC(=O)O)C/C(=C\CCCC(=O)O)C[C@H]12 (some centres undefined) |
| 5.6 | CC#CCC(C)[C@H](O)/C=C/[C@H]1[C@H](O)C[C@]2(C#CCCCI)C/C(=C\CCCC(=O)O)C[C@H]12 (some centres undefined) |
| 6 | CC#CCC(C)[C@H](O)/C=C/[C@H]1[C@H](O)C[C@]2(C#CCCCN=[N+]=[N-])C/C(=C\CCCC(=O)O)C[C@H]12 (some centres undefined) |
| n.k. | CC#CCC(C)[C@H](O)/C=C/[C@H]1[C@H](O)C[C@]2(CCCCCO)C/C(=C/CCCC(=O)O)C[C@H]12 (some centres undefined) |
| 180 | CC#CCC(C)[C@H](O)/C=C/[C@H]1[C@H](O)C[C@]2(CCC#CCCCO)C/C(=C\CCCC(=O)O)C[C@H]12 (some centres undefined) |
| 29 | CC#CCC(C)[C@H](O)/C=C/[C@H]1[C@H](O)C[C@]2(CCCCCN=[N+]=[N-])C/C(=C\CCCC(=O)O)C[C@H]12 (some centres undefined) |
| 3 | CC#CCC(C)[C@H](O)/C=C/[C@H]1[C@H](O)C[C@]2(C#CCCCBr)C/C(=C\CCCC(=O)O)C[C@H]12 (some centres undefined) |
| 11 | CC#CCC(C)[C@H](O)/C=C/[C@@H]1[C@H]2CC(=CCCCC(=O)O)C[C@H]2C[C@H]1O (some centres undefined) [ILOPROST] |

species: Homo sapiens; assay: Compound was tested for inhibition of blood platelet aggregation induced by ADP; 0.2-0.5*10e-9; format: functional, organism-based

| pIC50 | SMILES |
| --- | --- |
| 9.70 | CC#CCC(C)[C@H](O)/C=C/[C@@H]1[C@H]2C/C(=C/CCCC(=O)O)C[C@H]2C[C@H]1O (stereo in doubt; 1) [ILOPROST] |

Source: ChEMBL document CHEMBL1126418, “Synthesis of chemically stable 9-substituted carbacyclin derivatives and their biological use” (Bioorg Med Chem Lett, 1992)
